From publication PMC4604124, “In Vitro Characterization of the Pharmacological Properties of the Anti-Cancer Chelator, Bp4eT, and Its Phase I Metabolites” (PLoS ONE, 2015)
Values joined by “and” are separate entries in the source; they are usually repeats but may differ in a detail not shown here. Equal values may be shown once. Read-outs that look alike come from different tables or passages of the source.

Experiments:
[1] = MTT cytotoxicity assay, 3T3 cells; assay type: cell-based, mouse; conditions: mouse, 3T3 mouse embryo fibroblasts, 3T3, 10 000 b/j; for viability at 72 h, 3 nM: koncentrace 3 nM; for viability at 72 h, 10 nM: koncentrace 10 nM; for viability at 72 h, 30 nM: koncentrace 30 nM; for viability at 72 h, 100 nM: koncentrace 100 nM; for viability at 72 h, 300 nM: koncentrace 300 nM; for viability at 72 h, 1000 nM: koncentrace 1000 nM; for viability at 72 h, 3000 nM: koncentrace 3000 nM
Procedure, shortened: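 Non-cancerous 3T3 mouse embryo fibroblasts were plated at 10,000 cells/well in 96-well plates and cultured for 24 h/37°C. The medium was then replaced with serum- and pyruvate-free DMEM for a further 24 h/37°C. Cells were exposed to agents for 72 h/37°C with 0.1% DMSO present, and viability was measured by MTT.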

[2] = tested on: MCF-7 cells prelabeled with 59Fe2-transferrin; experiment: Mobilization (efflux) of cellular 59Fe; assay type: cell-based, human; set-up: Efflux 59Fe / Efflux 59Fe, Ave: unit not given here
Excerpt: Human transferrin (Sigma) was labeled with ^56Fe or ^59Fe (PerkinElmer, Massachusetts, USA) to produce ^56Fe2-transferrin or ^59Fe2-transferrin (^59Fe2-Tf), respectively, with a final specific activity of 500 pCi/pmol Fe, as previously described. Unbound ^59Fe was removed by exhaustive vacuum dialysis against a large excess of 0.15 M NaCl buffered to pH 7.4 with 1.4% NaHCO3 by standard methods.
To examine the ability of studied compounds to mobilize cellular ^59Fe from MCF-7 cells, iron efflux experiments were performed using established techniques. In brief, after pre-labeling confluent MCF-7 cells on 6-well plates with 0.75 μM ^59Fe2-Tf for 3 h/37°C, the cells were washed four times with ice-cold PBS and then subsequently incubated with 25 μM of Bp4eT or its metabolites for 3 h/37°C. The overlying medium containing released ^59Fe was then decanted from the cells. Radioactivity was measured in both the cells and the supernatant using a γ-scintillation counter (Wallac Wizard 3, Turku, Finland).

[3] = tested on: labile iron pool of MCF-7 cells; experiment: Calcein-AM assay, access to the labile iron pool; assay type: cell-based, human; set-up: Calcein fluorescence: unit not given here; conditions: 10 μM
Procedure, shortened: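 MCF-7 cells iron-loaded with ferric ammonium citrate (530 μg/mL) for 24 h, then loaded with 2 μM calcein-AM for 30 min at 37°C in ADS buffer, pH 7.4. Calcein fluorescence dequenching (ex 488/em 530 nm) followed for 10 min after adding 10 μM compound; efficacy expressed as percentage of Bp4eT (100%).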

[4] = tested on: caspase 9; experiment: Caspase activity, luminescent kit, caspase 9; assay type: cell-based, human; conditions: for Caspase 9 activity, % of the control: 100 nM, MCF-7, corrected for viability; for kaspáza 9, průměry (means of raw signal): mean of 4 experiments; for kaspáza 9, raw signal / kaspáza 9, signal / viabilita: individual experiments by date
Procedure: To assess the effect of the compounds on caspase activity, MCF-7 cells were incubated with 100 nM Bp4eT or its metabolites for 3, 24 or 72 h/37°C in 96-well plates, as described above. The cells were then lysed by adding 100 μL of cold lysis buffer (100 mM HEPES, 10 mM CHAPS, 10 mM D-L-dithiothreitol, pH 7.4) to 100 μL of medium in each well. Lysates were immediately frozen at -80°C. Thawed lysates were used to assess caspase activity using luminescent kits for caspases 3/7, 8 and 9 (Promega, Madison, WI, USA). The luminescence was measured using the Tecan Infinite 200M plate reader. Caspase activity in the experimental groups was corrected according to the cellular viability of each group and expressed as a percentage of activity of the untreated control (100%).

[5] = individual experiments, read-out: MTT viability (0 = 100)
[6] = mean, read-out: MTT viability (0 = 100), průměr

Compound: CCNC(=S)NN=C(c1ccccc1)c1ccccn1 [Bp4eT, 2-benzoylpyridine 4-ethyl-3-thiosemicarbazone]
- viability at 72 h, 3 nM [1, 5]: 101%
- viability at 72 h, 3 nM [1, 6]: 102%
- viability at 72 h, 10 nM [1, 5]: 93.7%
- viability at 72 h, 10 nM [1, 6]: 98.6%
- viability at 72 h, 30 nM [1, 5]: 89%
- viability at 72 h, 30 nM [1, 6]: 91.5%
- viability at 72 h, 100 nM [1, 5]: 75.4%
- viability at 72 h, 100 nM [1, 6]: 72.8%
- viability at 72 h, 300 nM [1, 5]: 72.4%
- viability at 72 h, 300 nM [1, 6]: 69.4%
- viability at 72 h, 1000 nM [1, 5]: 49.5%
- viability at 72 h, 1000 nM [1, 6]: 56.6%
- viability at 72 h, 3000 nM [1, 5]: 32.5%
- viability at 72 h, 3000 nM [1, 6]: 40.5%
- Release of cellular 59Fe, % of total cellular 59Fe ([2]; 25 μM, 3 h/37°C, MCF-7): 46.4%
- Efflux 59Fe, Ave ([2]; average of all replicates): 46.4439
- Efflux 59Fe ([2]; single replicate (three per date)): 48.2798 and 45.5975 and 45.2039 and 47.6936 and 45.8687 and 45.6484 and 48.9726 and 45.6298 and 45.1012
- Calcein fluorescence ([3]; 30 sec, mean (průměr)): 27.822
- Calcein fluorescence ([3]; 60 sec, mean (průměr)): 40.360
- Calcein fluorescence ([3]; 90 sec, mean (průměr)): 65.393
- Calcein fluorescence ([3]; 120 sec, mean (průměr)): 66.572
- Calcein fluorescence ([3]; 300 sec, mean (průměr)): 146.135
- Calcein fluorescence ([3]; 300 sec, single experiments): 168.950 and 158.308 and 180.958 and 116.900 and 150.183 and 101.508
- Calcein fluorescence ([3]; 600 sec, mean (průměr)): 220.551
- Calcein fluorescence ([3]; 600 sec, single experiments): 239.975 and 219.283 and 288.833 and 220.450 and 195.583 and 159.183
- Chelation efficacy: fluorescence of free calcein at t = 600 s as percentage of Bp4eT ([3]; MCF-7, mean of 6 experiments): 100%
- Fluorescence of free calcein at 600 s as percentage of Bp4eT ([3]; MCF-7, single experiments): 108.807% and 99.4251% and 130.96% and 99.954% and 88.6793% and 72.1752%
- Caspase 9 activity, % of the control ([4]; 24 h): 125%
- Caspase 9 activity, % of the control ([4]; 72 h): 249%
- kaspáza 9, % kontroly ([4]; 3 hodiny (3 h), % of control): 104.85%
- kaspáza 9, průměry (means of raw signal) ([4]; 3 hodiny (3 h)): 3805.38
- kaspáza 9, raw signal ([4]; 3 hodiny): 6578.5 and 2900.5 and 3521 and 2221.5
- kaspáza 9, raw signal, průměry ([4]; 3 hodiny, mean): 3805.38
- kaspáza 9, % kontroly ([4]; 3 hodiny, mean, normalised to viability): 111.23 % kontroly
- kaspáza 9, signal / viabilita ([4]; 3 hodiny, normalised to viability): 68.2861 and 30.1078 and 36.5487 and 23.0596
- kaspáza 9, signal / viabilita, průměry ([4]; 3 hodiny, normalised to viability, mean): 39.5005
- kaspáza 9, % kontroly ([4]; 24 hodin (24 h), % of control): 66.84%
- kaspáza 9, průměry (means of raw signal) ([4]; 24 hodin (24 h)): 2704
- kaspáza 9, raw signal ([4]; 24 hodin): 3466.5 and 1743.5 and 3244.5 and 2361.5
- kaspáza 9, raw signal, průměry ([4]; 24 hodin, mean): 2704
- kaspáza 9, % kontroly ([4]; 24 hodin, mean, normalised to viability): 124.96 % kontroly
- kaspáza 9, signal / viabilita ([4]; 24 hodin, normalised to viability): 65.5914 and 32.9897 and 61.3908 and 44.6831
- kaspáza 9, signal / viabilita, průměry ([4]; 24 hodin, normalised to viability, mean): 51.1638
- kaspáza 9, % kontroly ([4]; 72 hodin (72 h), % of control): 66.22%
- kaspáza 9, průměry (means of raw signal) ([4]; 72 hodin (72 h)): 14621.1
- kaspáza 9, raw signal ([4]; 72 hodin): 22930.5 and 14080 and 11064.5 and 10409.5
- kaspáza 9, raw signal, průměry ([4]; 72 hodin, mean): 14621.1
- kaspáza 9, % kontroly ([4]; 72 hodin, mean, normalised to viability): 249.26 % kontroly
- kaspáza 9, signal / viabilita ([4]; 72 hodin, normalised to viability): 846.456 and 519.749 and 408.435 and 384.256
- kaspáza 9, signal / viabilita, průměry ([4]; 72 hodin, normalised to viability, mean): 539.724
